The values below come from patent publication US20250352498A1, “PHARMACEUTICAL FORMULATIONS CONTAINING PHENYLBUTYRATE AND METHODS THEREOF” (AARDVARK THERAPEUTICS INC., priority 2024, published 2025).

For the substance sodium phenylbutyrate, for the setting “hydrophilic solvent”, the “solubility in hydrophilic solvent” value is “highly soluble”. The “solubility in hydrophobic excipients” value (hydrophobic excipients) was “poorly soluble”. In addition, the water solubility result (water) is “freely water soluble”.
